30 compounds from patent US20240116946A1 (Gilead Sciences, Inc., priority 2022, published 2024) can be followed below.

Assay [1] deals with recombinant SARS-CoV-2 Main protease (Mpro) (Severe acute respiratory syndrome coronavirus 2 (2019-nCoV) (SARS-CoV-2), UniProt P0DTD1). The assay can be described thus: Cov Mpro Biochemical IC50 Assay. The following applies: read-out: MPro IC50.
The subject of another assay is SARS-CoV-2-NLuc. The assay can be described thus: microbe, parasite or virus in culture. It counts as cell-based, SARS Coronavirus 2.
Where [2] appears, read: recombinant SARS-CoV-2 Mpro 7.5 nM, fluorogenic peptide substrate 40 μM.
Where [3] appears, read: Severe acute respiratory syndrome coronavirus, 48 h, read-out: MPro EC50.
Setting [4] is: recombinant SARS-CoV-2 Mpro, fluorogenic peptide substrate.
The mark [5] stands for this setting: Severe acute respiratory syndrome coronavirus, 48 h; read-out: MPro EC50.

As a reminder, the pIC50 is −log10 of the IC50, conventionally taken in molar units. In general, pEC50 refers to the EC50 on a negative log10 scale, so that one unit is a factor of ten.

pEC50, pIC50: −log10 of the molar value. Read-outs that look alike come from different tables or passages of the source.

For the compound `COc1cc(-c2cc3[nH]c(=O)n(-c4cncc5cccc(F)c45)c(=O)c3s2)c(C#N)cc1F` [Example 762], the pIC50 in assay [1] (setting [2]) was 8.14. Moreover, the pEC50 with SARS-CoV-2-NLuc (setting [3]) is 7.69.
For `N#Cc1cccc(-c2cccc(Cl)c2-c2ccc3c(=O)n(-c4cncc5ccccc45)c(=O)[nH]c3c2)n1` [Example 276], in assay [1] (setting [4]), the pIC50 is 6.64. Besides, in the assay with SARS-CoV-2-NLuc (setting [3]), the pEC50 is 6.66.
As for `COc1cc(-c2cc3[nH]c(=O)n(-c4cncc5ccc(C)nc45)c(=O)c3s2)c(Cl)cc1F` (single isomer, unassigned) [Example 1035, 6-(2-chloro-4-fluoro-5-methoxyphenyl)-3-(2-methyl-1,6-naphthyridin-8-yl)thieno[3,2-d]pyrimidine-2,4(1H,3H)-dione], the pIC50 in assay [1] (setting [2]) was 7.58. Also, the pEC50 in the assay on SARS-CoV-2-NLuc (read-out: MPro EC50) is 7.61.
In the case of `COc1cc(-c2cc3c(s2)c(=O)n(-c2cncc4cccc(F)c24)c(=O)n3CC#N)c(Cl)cc1F` [Example 703], the pIC50 in assay [1] (setting [2]) is 8.45. For the same compound, the pEC50 in the assay on SARS-CoV-2-NLuc (setting [3]) was 8.43.
For `O=c1[nH]c2cc(-c3ccccc3Cl)sc2c(=O)n1-c1cncc2cccc(Cl)c12` [Example 600], the pIC50 in assay [1] (setting [2]) was 8.28. For the same compound, the pEC50 with SARS-CoV-2-NLuc (setting [3]) is 7.74.
Taken in the same sequence, the figures for `COc1ccc(Cl)c(-c2cc3[nH]c(=O)n(-c4cncc5sccc45)c(=O)c3s2)c1` [Example 607] were 8.34 and 8.36.
Take `Cc1cc(-n2c(=O)c3sc(-c4ccccc4Cl)cc3n(CCC#N)c2=O)cnc1F` [Example 825]: in assay [1] (setting [2]), the pIC50 is 7.47. Besides, the negative logarithm of the EC50 (pEC50) in the assay on SARS-CoV-2-NLuc (setting [3]) was 7.11.
Taken in the same sequence, the figures for `COc1cc(C#N)c(-c2cc3c(s2)c(=O)n(-c2cncc4cnn(C)c24)c(=O)n3CCC#N)cc1F` [Example 795] were 7.70 and 7.06.
`Cn1ncc2cncc(-n3c(=O)[nH]c4cc(-c5c(F)ccc6[nH]ncc56)sc4c3=O)c21` [Example 1014, 6-(5-fluoro-1H-indazol-4-yl)-3-(1-methylpyrazolo[4,3-c]pyridin-7-yl)-1H-thieno[3,2-d]pyrimidine-2,4-dione]: the pIC50 in assay [1] (setting [2]) is under 6.00. The pEC50 in the assay with SARS-CoV-2-NLuc (setting [5]) was under 6.00.
Take `COc1cc(-c2cc3[nH]c(=O)n(-c4cncc(Cl)c4C)c(=O)c3s2)c(Cl)cc1F` [Example 743, 6-(2-chloro-4-fluoro-5-methoxy-phenyl)-3-(5-chloro-4-methyl-3-pyridyl)-1H-thieno[3,2-d]pyrimidine-2,4-dione]: the pIC50 in assay [1] (setting [2]) was 7.92. For the same compound, the pEC50 in the assay on SARS-CoV-2-NLuc (setting [5]) was 7.79.
With `O=c1[nH]c2cc(-c3c(Cl)cccc3OCc3cccnn3)ccc2c(=O)n1-c1cncc2ccccc12` [Example 302], in assay [1] (setting [4]), the pIC50 was 7.52. Moreover, the pEC50 in the assay on SARS-CoV-2-NLuc (setting [3]) is 6.97.
Taken in the same sequence, the figures for `COc1ccc(Cl)c(-c2ccc3c(=O)n(-c4cncc(C5CC5)c4)c(=O)[nH]c3c2)c1` [Example 191] were 7.13 and 7.04.
On to `COc1cc(-c2cc3[nH]c(=O)n(-c4cncc5cnn(C)c45)c(=O)c3s2)c(C)cc1Cl` [Example 666], for which, in assay [1] (setting [2]), the pIC50 was 7.62. Further, the pEC50 in the assay on SARS-CoV-2-NLuc (setting [5]) is 7.26.
Take `COCCn1c(=O)n(-c2cncc3cnn(C)c23)c(=O)c2sc(-c3cc(OC)c(F)cc3Cl)cc21` [Example 1069]: the pIC50 in assay [1] (setting [2]) is 7.41. Moreover, the pEC50 with SARS-CoV-2-NLuc (setting [3]) is 6.88.
Take `Cc1cc(-c2cccc(Cl)c2-c2cc3[nH]c(=O)n(-c4cncc(C5CC5)c4)c(=O)c3s2)cnn1` [Example 615, 6-(2-chloro-6-(6-methylpyridazin-4-yl)phenyl)-3-(5-cyclopropylpyridin-3-yl)thieno[3,2-d]pyrimidine-2,4(1H,3H)-dione]: the pIC50 in assay [1] (setting [2]) was 8.01. In addition, the negative logarithm of the EC50 (pEC50) in the assay on SARS-CoV-2-NLuc (setting [5]) is 6.85.
On to `Cc1cncc(-n2c(=O)[nH]c3cc(-c4ccccc4Cl)ccc3c2=O)c1OCC(F)(F)F` [Example 374], for which the negative-log IC50 (pIC50) in assay [1] (setting [4]) was 5.95. Moreover, in the assay with SARS-CoV-2-NLuc (setting [3]), the pEC50 is 5.91.
`COc1cc(-c2cc3c(s2)c(=O)n(-c2cncc4nc(C)n(C)c24)c(=O)n3CC2(C#N)CC2)c(Cl)cc1F` [Example 707]: the pIC50 in assay [1] (setting [2]) is 8.67. Also, the pEC50 in the assay on SARS-CoV-2-NLuc (setting [3]) was 8.05.
Consider `COc1cc(-c2cc3c(s2)c(=O)n(-c2cncc(C(F)(F)F)c2)c(=O)n3CCC#N)c(Cl)cc1F` [Example 869], for which the pIC50 in assay [1] (setting [2]) was 7.62. For the same compound, the pEC50 in the assay with SARS-CoV-2-NLuc (setting [3]) is 7.14.
Consider `O=c1[nH]c2cc(-c3c(Cl)cccc3OCc3cscn3)ccc2c(=O)n1-c1cncc2ccccc12` [Example 471, 7-[2-chloro-6-(thiazol-4-ylmethoxy)phenyl]-3-(4-isoquinolyl)-1H-quinazoline-2,4-dione], for which, in assay [1] (setting [2]), the pIC50 was 7.01. The pEC50 in the assay on SARS-CoV-2-NLuc (read-out: MPro EC50) was 6.32.
Regarding `COc1cc(-c2cc3c(s2)c(=O)n(-c2cncc4cccc(C)c24)c(=O)n3CCC#N)c(Cl)cc1F` (atropisomer, axis not shown) [Example 920], the pIC50 in assay [1] (setting [2]) is 8.26. The pEC50 with SARS-CoV-2-NLuc (setting [3]) is 8.37.
The like results for `COc1cc(Cl)c(-c2cc3[nH]c(=O)n(-c4cncc5ccccc45)c(=O)c3s2)cc1F` [Example 725] were, in that order, 8.07 and 7.71.
Take `O=c1[nH]c2cc(-c3ccccc3Cl)ncc2c(=O)n1-c1cncc2ccccc12` [Example 163, 7-(2-chlorophenyl)-3-(4-isoquinolyl)-1H-pyrido[4,3-d]pyrimidine-2,4-dione]: the negative logarithm of the IC50 (pIC50) in assay [1] (setting [4]) is 6.31. In the assay on SARS-CoV-2-NLuc (setting [3]), the pEC50 was 6.03.
`COc1cc(-c2cc3[nH]c(=O)n(-c4cncc5ccccc45)c(=O)c3cc2F)c(C#N)cc1F` (single isomer, unassigned) [Example 511, 5-fluoro-2-[6-fluoro-3-(4-isoquinolyl)-2,4-dioxo-1H-quinazolin-7-yl]-4-methoxy-benzonitrile]: in assay [1] (setting [2]), the pIC50 was 6.04. Further, the pEC50 in the assay with SARS-CoV-2-NLuc (read-out: MPro EC50) was 6.22.
Turning to `COc1cc(-c2cc3[nH]c(=O)n(-c4cncc(C)c4C)c(=O)c3s2)c(Cl)cc1F` [Example 747], the pIC50 in assay [1] (setting [2]) was 8.33. Further, in the assay with SARS-CoV-2-NLuc (setting [3]), the pEC50 is 8.38.
Taken in the same sequence, the figures for `COc1cnc(C#N)c(-c2cc3c(s2)c(=O)n(-c2cncc4ccccc24)c(=O)n3CCC#N)c1` [Example 837, 3-(1-(2-cyanoethyl)-3-(isoquinolin-4-yl)-2,4-dioxo-1,2,3,4-tetrahydrothieno[3,2-d]pyrimidin-6-yl)-5-methoxypicolinonitrile] were 8.04 and 7.52.
On to `Cc1ccc(C#N)cc1-c1cc2c(s1)c(=O)n(-c1cncc3cnn(C)c13)c(=O)n2CCC#N` [Example 809], for which the pIC50 in assay [1] (setting [2]) was 7.27. Besides, the pEC50 in the assay with SARS-CoV-2-NLuc (setting [3]) was 6.70.
As for `O=c1[nH]c2cc(-c3c(Cl)cccc3-c3cccnc3)ccc2c(=O)n1-c1cncc2ccccc12` [Example 187], in assay [1] (setting [4]), the pIC50 is 7.53. Besides, the pEC50 in the assay on SARS-CoV-2-NLuc (setting [3]) was 7.75.
With `O=c1[nH]c2cc(-c3ccccc3Cl)ccc2c(=O)n1-c1cncc2cccnc12` [Example 450], the pIC50 in assay [1] (setting [2]) is 6.90. In the assay with SARS-CoV-2-NLuc (setting [3]), the pEC50 was 6.68.
Taken in the same sequence, the figures for `O=c1[nH]c2cc(-c3ccccc3Cl)sc2c(=O)n1-c1cncc2ccc(N3CC4(C3)CS(=O)(=O)C4)cc12` [Example 395] were 8.14 and 7.09.
Consider `COc1ccc(Cl)c(-c2cc3[nH]c(=O)n(-c4cncc5ccc(N6CCS(=O)(=O)CC6)cc45)c(=O)c3s2)c1` [Example 226], for which the negative logarithm of the IC50 (pIC50) in assay [1] (setting [4]) was 8.43. Also, the pEC50 in the assay on SARS-CoV-2-NLuc (setting [3]) is 7.63.
